Laboratory results: paper PMC9078123, “Ahmpatinin ^iBu, a new HIV-1 protease inhibitor, from Streptomyces sp. CPCC 202950” (RSC Advances, 2018)
Square brackets hold non-standard residues; d marks the D form. Peptide text beside a SMILES is read from it. * marks the point of attachment. X1 = COc1ccc(C[C@H](N*)[C@@H](O)CC(=O)O)cc1; Sta = CC(C)C[C@H](N)[C@@H](O)CC(=O)O; Isobutyryl = CC(C)C(=O)*; Propionyl = CCC(=O)*

Tests used:
HIV-1 protease = biological target: T1, HIV-1 protease (Human immunodeficiency virus type 1 group M subtype B, UniProt P04585); assay: Inhibition of HIV-1 protease activity; assay type: biochemical
T1 construct: HIV-1 PR is a 22 kDa dimeric aspartyl protease
Excerpt: Analysis of the inhibition of HIV-1 protease activity

[1] = Cytotoxic activity assay, Hela; conditions: human, HeLa cervical cancer cells
Experimental: (§1) Cervical cancer (Hela), hepatocellular carcinoma (HepG2), and human osteosarcoma (U2OS) cell lines were obtained from the National Infrastructure of Cell Line Resource (Beijing, China).
(§2) This was measured using the previously described protocol.[34]

[2] = Cytotoxic activity assay, U2OS; conditions: human, U2OS osteosarcoma cells
Experimental: as §1, §2

[3] = Cytotoxic activity assay, HepG2; conditions: human, HepG2 hepatocellular carcinoma cells
Experimental: as §1, §2

SMILES	IC50 (HIV-1 protease)	also measured
COc1ccc(C[C@H](NC(=O)[C@H](C)NC(=O)C[C@H](O)[C@H](CC(C)C)NC(=O)[C@@H](NC(=O)[C@@H](NC(=O)C(C)C)C(C)C)C(C)C)[C@@H](O)CC(=O)O)cc1 [Compound 1, ^iBu-L-Val^1-L-Val^2-(3S,4S)-Sta-L-Ala-(3S,4S)-Ahmppa] (Isobutyryl-VV[Sta]A-X1)	1.79 nM	–
CC(C)C[C@H](NC(=O)[C@@H](NC(=O)[C@@H](NC(=O)C(C)C)C(C)C)C(C)C)[C@@H](O)CC(=O)N[C@@H](C)C(=O)O [Compound 2, ^iBu-L-Val^1-L-Val^2-(3S,4S)-Sta-L-Ala] (Isobutyryl-VV[Sta]A-OH)	3190 nM	–
CC(C)CCCCC(=O)N[C@H]1CCN(CC(=O)O)C1=O [Compound 3, (−)-(S)-2-[3-(6-methylheptanamido)-2-oxopyrrolidin-1-yl]acetic acid]	> 10000 nM	inhibitory activity against HIV-1 protease (in words) (HIV-1 protease; preliminary in vitro assay): inactive
CCC(=O)N[C@H](C(=O)N[C@H](C(=O)N[C@@H](CC(C)C)[C@@H](O)CC(=O)N[C@@H](C)C(=O)N[C@@H](CC(C)C)[C@@H](O)CC(=O)O)C(C)C)C(C)C [Compound 5, pepstatin Pr] (Propionyl-VV[Sta]A[Sta]-OH)	22.3 nM	–
CC(C)C[C@H](NC(=O)[C@H](C)NC(=O)C[C@H](O)[C@H](CC(C)C)NC(=O)[C@@H](NC(=O)[C@@H](NC(=O)C(C)C)C(C)C)C(C)C)[C@@H](O)CC(=O)O [Compound 6, pepsinostreptin] (Isobutyryl-VV[Sta]A[Sta]-OH)	9.9 nM	–
COC(=O)C[C@H](O)[C@H](CC(C)C)NC(=O)[C@H](C)NC(=O)C[C@H](O)[C@H](CC(C)C)NC(=O)[C@@H](NC(=O)[C@@H](NC(C)=O)C(C)C)C(C)C [Compound 7, pepstatin Ac methyl ester] (Ac-VV[Sta]A[Sta]-OMe)	203 nM	–
CCC(=O)N[C@H](C(=O)N[C@H](C(=O)N[C@@H](CC(C)C)[C@@H](O)CC(=O)N[C@@H](C)C(=O)N[C@@H](CC(C)C)[C@@H](O)CC(=O)OC)C(C)C)C(C)C [Compound 8, pepstatin Pr methyl ester] (Propionyl-VV[Sta]A[Sta]-OMe)	139 nM	–
COC(=O)C[C@H](O)[C@H](CC(C)C)NC(=O)[C@H](C)NC(=O)C[C@H](O)[C@H](CC(C)C)NC(=O)[C@@H](NC(=O)[C@@H](NC(=O)C(C)C)C(C)C)C(C)C [Compound 9, pepsinostreptin methyl ester] (Isobutyryl-VV[Sta]A[Sta]-OMe)	782 nM	–
COc1cccc2c1C(=O)c1c(O)c3c(c(O)c1C2=O)C[C@@](O)(C(=O)CO)C[C@@H]3O[C@H]1C[C@H](N)[C@H](O)[C@H](C)O1 [doxorubicin]	–	IC50 [1]: 1420 nM; IC50 [2]: 2780 nM; IC50 [3]: 1560 nM
